Measurements taken from US10821100B2, “Triazolone compounds as mPGES-1 inhibitors” (Glenmark Pharmaceuticals S.A., priority 2012, dated 2020).

Target: T1, Recombinant human mPGES-1 (Homo sapiens, UniProt O14684)
T1 construct: made in house; host or cells: CHO cells (crude microsomal fractions)
T1 sequence (O14684 1-152): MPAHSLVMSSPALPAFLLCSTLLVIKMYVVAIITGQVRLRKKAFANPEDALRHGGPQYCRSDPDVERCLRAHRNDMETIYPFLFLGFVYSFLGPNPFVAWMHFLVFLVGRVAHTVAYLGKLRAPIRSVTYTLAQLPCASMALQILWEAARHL
Assay: In-vitro screening of mPGES-1 inhibitors (inhibition of PGE2 formation from PGH2, HTRF detection)
Format: biochemical
Conditions: mPGES-1 enzyme; for inhibition at 1 µM: 1 μM test compound, read-out: Percentage inhibition at 1 μM; for inhibition at 1 µM / inhibition at 10 µM: crude microsomal fractions; for inhibition at 10 µM: 10 μM test compound, read-out: Percentage inhibition at 10 μM; for IC50: class symbols
Source text: In-Vitro Protocol for Screening of mPGES-1 Inhibitors: mPGES-1 (Microsomal prostaglandin E synthase-1) is a microsomal enzyme that converts endoperoxide substrate PGH2 (prostaglandin H2) to product PGE2 (prostaglandin E2) by isomerization in the presence of reduced glutathione (GSH). mPGES-1 inhibitors were screened by assessing their ability to inhibit formation of PGE2 from PGH2 in the presence of mPGES-1 using an anti-PGE2 antibody based detection method. Recombinant human mPGES-1 was generated in-house by expression in CHO cells (Ouellet M et al. (2002), Protein Expression and Purification 26: 489-495). The assay was set up using crude microsomal fractions at a protein concentration of 40-60 μg/mL. Test compounds were prepared in 100% dimethyl sulfoxide (DMSO) to obtain 20 mM stock solution and then diluted using assay buffer comprising 0.1 M Potassium phosphate buffer with 2 mM EDTA. The final concentration of DMSO in the reaction was 0.5% (v/v). Negative controls were comprised of all assay reagents except the enzyme. Positive controls were comprised of the enzyme reaction in the absence of any inhibitor. Test compounds were incubated for 10 minutes in assay buffer containing 2.5 mM GSH and mPGES-1 enzyme followed by addition of PGH2 at a concentration of 15 μM for 1 minute. The reaction was stopped by addition of Stannous chloride (11 mg/ml) and PGE2 levels were measured ([…] et al. (2005), Journal of Biomolecular Screening 10(6) 599-605; Goedken R E et al. (2008), Journal of Biomolecular Screening 13 (7): 619-625) by HTRF kit (CisBio)). Inhibition of mPGES-1 enzyme activity was measured using the percent of reaction occurring in the positive control. Concentration response curves were plotted using percent inhibition of maximum enzyme reaction. The IC50 value was calculated from the concentration response curve by nonlinear regression analysis using GraphPad PRISM software.

| SMILES | inhibition at 1 µM | inhibition at 10 µM | IC50 |
| --- | --- | --- | --- |
| COc1cc(-n2nc(-c3c(C)cccc3Cl)[nH]c2=O)ccc1C(=O)Nc1ccc(F)c(C(F)F)c1 [Example-53, 4-(3-(2-Chloro-6-methylphenyl)-5-oxo-4,5-dihydro-1H-1,2,4-triazol-1-yl)-N-(3-(difluoromethyl)-4-fluorophenyl)-2-methoxybenzamide] | 82.7% | 97.9% | < 50 nM |
| CC(C)(CO)C(=O)NCc1ccc(Cl)c(-n2nc(-c3ccc(C#CC4CC4)cc3)[nH]c2=O)c1 [Example-191, N-(4-Chloro-3-(3-(4-(cyclopropylethynyl)phenyl)-5-oxo-4,5-dihydro-1H-1,2,4-triazol-1-yl)benzyl)-3-hydroxy-2,2-dimethylpropanamide] | 93.5% | 100% | > 100 nM |
| CC(C)c1nnc(-c2ccc(-c3nn(-c4cc(CNC(=O)C(C)(C)C)ccc4Cl)c(=O)[nH]3)cc2)o1 [Example-153, N-(4-Chloro-3-(4,5-dihydro-3-(4-(5-isopropyl-1,3,4-oxadiazol-2-yl)phenyl)-5-oxo-1,2,4-triazol-1-yl)benzyl)pivalamide] | 93.9% | 99.7% | 50 to 100 nM |
| CC(C)(C)C(=O)NCc1cc(-c2nn(-c3ccc(C(F)(F)F)cc3)c(=O)[nH]2)c(Cl)cc1F [Example-114, N-(4-Chloro-2-fluoro-5-(1-(4-(trifluoromethyl)phenyl)-4,5-dihydro-S-oxo-1H-1,2,4-triazol-3-yl)benzyl)pivalamide] | 99.1% | 98.4% | < 50 nM |
| O=C(NCc1ccc(Cl)c(-n2nc(-c3ccc(C#Cc4ccc(C(F)(F)F)cc4Cl)cc3F)[nH]c2=O)c1)C1CC1 [Example-82, N-(4-Chloro-3-(3-(4-((2-chloro-4-(trifluoromethyl)phenyl)ethynyl)-2-fluorophenyl)-5-oxo-4,5-dihydro-1H-1,2,4-triazol-1-yl)benzyl)cyclopropanecarboxamide] | 98.3% | 99% | < 50 nM |
| COc1cc(-c2nn(-c3c(Cl)cccc3Cl)c(=O)[nH]2)ccc1C(=O)Nc1cc(C(F)(F)F)ccc1F [Example-178, 4-(1-(2,6-Dichlorophenyl)-4,5-dihydro-5-oxo-1H-1,2,4-triazol-3-yl)-N-(2-fluoro-5-(trifluoromethyl)phenyl)-2-methoxybenzamide] | 42.7% | 91.5% | – |
| CC(C)(C)C(=O)NCc1ccc(Cl)c(-n2nc(-c3ccc(C(F)(F)F)cc3)[nH]c2=O)c1F [Example-93, N-(4-Chloro-2-fluoro-3-(5-oxo-3-(4-(trifluoromethyl)phenyl)-4,5-dihydro-1H-1,2,4-triazol-1-yl)benzyl)pivalamide] | 96.8% | 99.6% | < 50 nM |
| CC(C)(C)C(=O)NCc1ccc(Cl)c(-n2nc(-c3c(F)cccc3Cl)[nH]c2=O)c1F [Example-88, N-(4-Chloro-3-(3-(2-chloro-6-fluorophenyl)-5-oxo-4,5-dihydro-1H-1,2,4-triazol-1-yl)-2-fluorobenzyl)pivalamide] | 3.34% | 39.2% | – |
| CC(C)(C)C(=O)NCc1ccc(Cl)c(-n2nc(-c3ccc(C(F)(F)F)cc3F)[nH]c2=O)c1F [Example-87, N-(4-Chloro-2-fluoro-3-(3-(2-fluoro-4-(trifluoromethyl)phenyl)-5-oxo-4,5-dihydro-1H-1,2,4-triazol-1-yl)benzyl)pivalamide] | 93.4% | 99.2% | 50 to 100 nM |
| CC(C)(C)C(=O)NCc1ccc(Cl)c(-c2nn(-c3ccc(C(F)(F)F)c(F)c3)c(=O)[nH]2)c1F [Example-173, N-(4-Chloro-2-fluoro-3-(1-(3-fluoro-4-(trifluoromethyl)phenyl)-4,5-dihydro-5-oxo-1H-1,2,4-triazol-3-yl)benzyl)pivalamide] | 96.8% | 99% | < 50 nM |
| CC(C)(C)C(=O)NCc1ccc(Cl)c(-c2nn(-c3ccc(Cl)c(C(F)(F)F)c3)c(=O)[nH]2)c1F [Example-174, N-(4-Chloro-3-(1-(4-chloro-3-(trifluoromethyl)phenyl)-4,5-dihydro-5-oxo-1H-1,2,4-triazol-3-yl)-2-fluorobenzyl)pivalamide] | 99.9% | 100% | < 50 nM |
| CC(C)(C)C(=O)NCc1ccc(Cl)c(-n2nc(-c3ccc(Cl)c(C(F)(F)F)c3)[nH]c2=O)c1 [Example-147, N-(4-Chloro-3-(3-(4-chloro-3-(trifluoromethyl)phenyl)-4,5-dihydro-5-oxo-1,2,4-triazol-1-yl)benzyl)pivalamide] | 98.6% | 97.6% | < 50 nM |
| CC(C)(C)C(=O)NCc1cc(-c2nn(-c3ccc(C(F)(F)F)nc3)c(=O)[nH]2)c(Cl)cc1F [Example-129, N-(4-Chloro-2-fluoro-5-(1-(6-(trifluoromethyl)pyridin-3-yl)-4,5-dihydro-5-oxo-1H-1,2,4-triazol-3-yl)benzyl)pivalamide] | 93.5% | 92.1% | < 50 nM |
| COc1cc(-n2nc(-c3c(Cl)cccc3Cl)[nH]c2=O)ccc1-c1nc(-c2ccc(Cl)cc2)no1 [Example-49, 1-(4-(3-(4-Chlorophenyl)-1,2,4-oxadiazol-5-yl)-3-methoxyphenyl)-3-(2,6-dichlorophenyl)-1H-1,2,4-triazol-5(4H)-one] | 89.2% | 96.3% | < 50 nM |
| O=C(NCc1ccc(Cl)c(-n2nc(-c3ccc(C#Cc4ccc(Cl)cc4F)cc3F)[nH]c2=O)c1)C1CC1 [Example-79, N-(4-Chloro-3-(3-(4-((4-chloro-2-fluorophenyl)ethynyl)-2-fluorophenyl)-5-oxo-4,5-dihydro-1H-1,2,4-triazol-1-yl)benzyl)cyclopropanecarboxamide] | 99.1% | 97.1% | < 50 nM |
| COc1ccc(-n2nc(-c3c(F)cccc3Cl)[nH]c2=O)cc1C(=O)NCc1ccccc1C(F)(F)F [Example-20, 5-[3-(2-Chloro-6-fluorophenyl)-5-oxo-4,5-dihydro-1H-1,2,4-triazol-1-yl]-2-methoxy-N-[2-(trifluoromethyl)benzyl]benzamide] | 22.4% | 87.4% | – |
| COc1cc(-n2nc(-c3c(F)cccc3Cl)[nH]c2=O)ccc1C(=O)NC1(c2ccc(C(F)(F)F)cc2)CC1 [Example-27, 4-(3-(2-Chloro-6-fluorophenyl)-5-oxo-4,5-dihydro-1H-1,2,4-triazol-1-yl)-2-methoxy-N-(1-(4-(trifluoromethyl)phenyl)cyclopropyl)benzamide] | 72.8% | 97.5% | – |
| CC(C)(C)C(=O)NCc1ccc(Cl)c(-n2nc(-c3ccc(CN4CCCC4)cc3)[nH]c2=O)c1 [Example-151, N-(4-Chloro-3-(4,5-dihydro-5-oxo-3-(4-((pyrrolidin-1-yl)methyl)phenyl)-1,2,4-triazol-1-yl)benzyl)pivalamide] | 65% | 95.9% | – |
| O=C(NCc1ccc(Cl)c(-n2nc(-c3ccc(Cl)cc3F)[nH]c2=O)c1)C1CC1 [Example-91, N-(4-Chloro-3-(3-(4-chloro-2-fluorophenyl)-5-oxo-4,5-dihydro-1H-1,2,4-triazol-1-yl)benzyl)cyclopropanecarboxamide] | 66.2% | 94.3% | – |
| COc1cc(-n2nc(-c3c(Cl)cccc3Cl)[nH]c2=O)ccc1C(=O)Nc1cccc(C(F)(F)F)c1 [Example-42, 4-(3-(2,6-Dichlorophenyl)-5-oxo-4,5-dihydro-1H-1,2,4-triazol-1-yl)-2-methoxy-N-(3-(trifluoromethyl)phenyl)benzamide] | 96.5% | 99.7% | < 50 nM |
| Cc1ccc(CNC(=O)C(C)(C)C)c(C)c1-c1nn(-c2ccc(C(F)(F)F)cc2)c(=O)[nH]1 [Example-108, N-(3-(1-(4-(Trifluoromethyl)phenyl)-4,5-dihydro-5-oxo-1H-1,2,4-triazol-3-yl)-2,4-dimethylbenzyl)pivalamide] | 89.8% | 99.7% | > 100 nM |
| CC(C)C(=O)NCc1cc(-c2nn(-c3ccc(C(F)(F)F)cc3)c(=O)[nH]2)c(Cl)cc1F [Example-133, N-(4-Chloro-2-fluoro-5-(1-(4-(trifluoromethyl)phenyl)-4,5-dihydro-5-oxo-1H-1,2,4-triazol-3-yl)benzyl)isobutyramide] | 98% | 97.9% | < 50 nM |
